Assay results as given in PubChem BioAssay AID179 (DTP/NCI, 2004).
The source made the active and inactive calls.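 How the source made its calls: active means compounds giving half or more protection of infected cells from virus-caused growth loss, again on retest; inactive means the rest.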 Where a SMILES comes first, the peptide text is derived from it. [ ]: non-standard residue; d: D form. The star is where a group is joined. ξ: configuration not given here. NMeF = CN[C@@H](Cc1ccccc1)C(=O)O; NMeN = CN[C@@H](CC(N)=O)C(=O)O; NMeV = CN[C@H](C(=O)O)C(C)C; ξNMeV = CNC(C(=O)O)C(C)C; Boc = CC(C)(C)OC(=O)*; ξNMeA = CNC(C)C(=O)O; ξV = CC(C)C(N)C(=O)O

System: CEM cells HIV-1 protection, formazan growth assay
Assay: NCI AIDS Antiviral Assay
Details: for IC50: measured here: growth of uninfected CEM cells
In short: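 Protection of CEM cells against HIV-1 was scored from cell growth (soluble formazan) across five concentrations, with parallel uninfected cells. Lack of protection may reflect toxicity.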

| Structure (SMILES) | EC50 | IC50 | outcome |
| --- | --- | --- | --- |
| c1cnc2c(c1)-n1cccc1C1(CCSC1)NN2 (stereo not drawn) | > 138 µM | > 138 µM |  |
| C1COCCOP2(N3CC3)=NP(N3CC3)(=NP(N3CC3)(N3CC3)=N2)OCCOCCO1 (stereo not drawn) | > 200 µM | 21.4 µM |  |
| C#CCN1C(=O)c2ccccc2S1(=O)=O | > 200 µM | > 200 µM |  |
| FC(F)(F)c1ccc2c(c1)N(CCCNCCN1CCOCC1)c1ccccc1S2 | > 355 µM | 20.9 µM |  |
| COC(=O)c1ccccc1C1CN=NC12Cc1c(ccc(C)c1C)C2=O (stereo not drawn) | > 151 µM | > 151 µM |  |
| COC[C@@H](N=Cc1ccc(OC)cc1)C(C)C | > 200 µM | > 200 µM |  |
| Cc1cccc(C(C)(C)C)c1NC(=O)CCc1n[nH]c(=S)o1 | > 776 µM | 692 µM |  |
| Cc1nc(C(N)=S)sc1C(=O)CC(=O)C(=O)Nc1ccccc1[N+](=O)[O-] |  |  | inactive |
| CC1=C(C(=O)Nc2cccc(Cl)c2)C(c2ccc([N+](=O)[O-])cc2)C(C(=O)Nc2cccc(Cl)c2)=C(C)N1 | > 9.77 µM | 7.94 µM |  |
| COc1ccc(NC2=NCCO2)c2c1CCCC2 | > 200 µM | 77.6 µM |  |
| COC(=O)CCc1ccc2c(c1)C(=O)CC2 | > 200 µM | > 200 µM |  |
| COc1ccc2c(c1O)-c1c(O)cccc1CCN(C)CC2 | > 200 µM | > 200 µM |  |
| Nc1ccc2c(c1)[O][Sn]([c]1ccccc1)([c]1ccccc1)[O]C2=O |  |  | inactive |
| CCC1(CCC#N)CCC(N)=CC1=O (stereo not drawn) | > 200 µM | > 200 µM |  |
| Nc1ccc(C(=O)CC2(O)C(=O)Nc3c(Cl)cc(Cl)cc32)cc1 (stereo not drawn) | > 33.9 µM | 18.6 µM |  |
| O/N=C1\CCc2cc3c(cc21)CCC3 | > 200 µM | 155 µM |  |
| O=C(Nc1nc2c(ncn2C2OC(CO)C(O)C2O)c(=O)[nH]1)c1ccccc1 (stereo not drawn) | > 646 µM | 251 µM |  |
| COC(=O)c1ccc(N2CCOS(=O)OCC2)cc1OC(=O)c1ccccc1 | > 200 µM | 33.1 µM |  |
| Cc1ccc(-n2c(N)c(C#N)c3[nH]nc(N)c3c2=O)cc1 | > 200 µM | > 200 µM |  |
| COc1cc(C(=O)N2CCOCC2)cc(OC)c1OC | > 200 µM | > 200 µM |  |
| COc1ccc(C(=O)/C=C/c2cc(C(C)(C)C)c(O)c(C(C)(C)C)c2)cc1 | > 7.41 µM | > 7.41 µM |  |

| Structure (SMILES) | EC50 | IC50 | outcome |
| --- | --- | --- | --- |
| Cc1ccc(N=Nc2c(C)c(C#N)c(=S)n(C3OC(CO)C(O)C(O)C3O)c2C)cc1 (stereo not drawn) | > 200 µM | 19.1 µM |  |
| Cc1ccccc1-n1c(=S)n(-c2ccc(Cl)cc2)c2nc3ccccc3nc1/c2=N/Nc1cc(Cl)ccc1Cl | > 200 µM | 174 µM |  |
| COc1ccccc1NC(=O)C1=C(C)NC(C)=C(C(=O)Nc2ccccc2OC)C1c1ccc(C2C(C(=O)Nc3ccccc3OC)=C(C)NC(C)=C2C(=O)Nc2ccccc2OC)cc1 | > 1.62 µM | > 1.62 µM |  |
| COP(C)(=O)C1=CCN(C(=O)OCC[Si](C)(C)C)CC1 (stereo not drawn) | > 200 µM | > 200 µM |  |
| COc1cc(C[P+](c2ccccc2)(c2ccccc2)c2ccccc2)cc(OC)c1OC | > 479 µM | 33.1 µM |  |
| COc1cccc(/C=C/C(=O)C(C)(C)C)c1 | > 24 µM | > 24 µM |  |
| Cc1ccc(/C=C2\CCCC\C2=N\O)cc1 |  |  | inactive |
| O=C(O)C1CCCCC1c1c2ccc(=O)c(O)c-2oc2c(O)c(O)ccc12 (stereo not drawn) | 17 µM | 83.2 µM |  |
| COC(=O)C(C)N(C)C(=O)[C@H](CC(N)=O)N(C)C(=O)[C@@H]1CCCN1C(=O)[C@H](C(C)C)N(C)C(=O)C(C(C)C)N(C)C(=O)[C@H](Cc1ccccc1)N(C)C(=O)C(NC(=O)OC(C)(C)C)C(C)C (stereo partly drawn) (Boc-[ξV][NMeF][ξNMeV][NMeV]P[NMeN][ξNMeA]-OMe) | > 100 µM | 17.8 µM |  |
| Cc1nc(-n2nc(-c3ccccc3)cc2-c2ccccc2)sc1C(=O)/C=C/c1ccccc1 | > 16.2 µM | 8.32 µM |  |
| CCSCCCCCCCCCCC(=O)O | > 200 µM | 63.1 µM |  |
| Cc1cc(C)nc(NS(=O)(=O)c2ccc(N=c3c4ccccc4n(-c4ccccc4)c4ccccc34)cc2)n1 |  |  | inactive |
| C/C1=C\CC[C@@]2(C)O[C@@H]2[C@H]2OC(=O)C(C)C2C[C@H]1O (stereo partly drawn) | > 200 µM | > 200 µM |  |
| CC1=C(c2cc(C(=O)Nc3cccc(C(F)(F)F)c3)ncn2)Sc2ccccc2N1 | > 83.2 µM | > 83.2 µM |  |
| O=C1NC(c2cccs2)N2C(=O)NC(c3cccs3)N12 (stereo not drawn) | > 200 µM | 145 µM |  |
| COc1cc2cc(C(=O)N3CC(CCl)c4c3cc(NC(=O)OCc3ccc([N+](=O)[O-])cc3)c3ccccc43)[nH]c2c(OC)c1OC (stereo not drawn) | > 200 µM | 2.88 µM |  |
| Nc1cc(N)c(N=Nc2ccc(CCc3ccc(N=Nc4c(N)cc(N)cc4C(=O)O)cc3S(=O)(=O)O)c(S(=O)(=O)O)c2)c(C(=O)O)c1 | > 1020 µM | 174 µM |  |
| CN(C)Cc1c[nH]c2nc[nH]c(=O)c12 | > 200 µM | 25.7 µM |  |
| O=C(Nc1c(Cl)cc([N+](=O)[O-])cc1Cl)C(=O)C1C(=O)NC(=S)NC1=O | > 89.1 µM | > 89.1 µM |  |
| Cc1c(C)c([N+](=O)[O-])c2c(c1N)C(=O)c1ccccc1C2=O |  |  | inactive |
| Cn1c(=O)c2c(nc3n(CCCCl)c(=O)ccn23)n(C)c1=O | > 200 µM | > 100 µM |  |

| Structure (SMILES) | EC50 | IC50 | outcome |
| --- | --- | --- | --- |
| COC(=O)C(=O)C(C(=O)C(=O)Nc1cc(C)ccc1C)c1nc2ccccc2[nH]c1=O (stereo not drawn) | > 589 µM | 275 µM |  |
| COc1cc(CC2C(O)C3CCN2CC3)cc(OC)c1OC (stereo not drawn) |  |  | inactive |
| CC(=O)NCCCCCCNC(C)=O | > 1260 µM | > 1260 µM |  |
| Cc1c(C)c2cc3ccoc3cc2oc1=O | > 83.2 µM | > 83.2 µM |  |
| CC(C)N([PH2+]N(C(C)C)C(C)C)C(C)C.[C-]#[O+].[C-]#[O+].[C-]#[O+].[C-]#[O+].[C-]#[O+].[Mo] | > 77.6 µM | > 77.6 µM |  |
| C=CC1(c2ccc(-c3ccccc3)cc2)OCCO1 | > 200 µM | 81.3 µM |  |
| COc1ccc(C2=C(Cl)c3cc(OC)c(OC)cc3C2)cc1OC | > 200 µM | > 200 µM |  |
| CCCCc1ccc(Nc2ncc3[nH]cnc3n2)cc1 | > 200 µM | 29.5 µM |  |
| c1ccc2c3[nH]c(c2c1)=Nc1ccc(cc1)-c1nc2cc(ccc2o1)N=c1[nH]c(c2ccccc12)=Nc1ccc2nc(oc2c1)-c1ccc(cc1)N=3 | > 200 µM | 40.7 µM |  |
| O=S1(=O)CS(=O)(=O)OCCCCCO1 | > 537 µM | > 537 µM |  |
| CCNC(=O)Sc1ccccc1C(=O)N[C@H](C)C(N)=O | 1.15 µM | 93.3 µM |  |
| O=S1(=O)CCC(OC2CCS(=O)(=O)C2)C1 (stereo not drawn) | > 977 µM | > 977 µM |  |
| CCCCc1ccc2[n+](c1)C(C(=O)OCC)=PC2 (stereo not drawn) | > 178 µM | 145 µM |  |
| N#CCCN(CCC#N)c1ccc(/C=C2\N=C(c3ccccc3)N(c3ccc(F)cc3)C2=O)cc1 | > 200 µM | > 200 µM |  |
| CO[C@@H]1C[C@H]2[C@@H]3CC[C@H]([C@H](C)COC(C)=O)[C@@]3(C)CC[C@@H]2[C@@]2(C)CC[C@H]3C[C@]312 | > 100 µM | > 100 µM |  |
| Cc1ccc(C(=O)c2ccccc2C(=O)O)cc1C(=O)O | > 200 µM | > 200 µM |  |
| COC1=CC2(OC)CCC1C1=C2C(=O)c2c(O)cccc2C1=O (stereo not drawn) |  |  | inactive |
| CCN(CC)C(=S)[S-].CCN(CC)C(=S)[S-].O=C(O)CC([S-])C(=O)O.[Fe+3] (stereo not drawn) | > 100 µM | 38.9 µM |  |
| COc1ccc(C2ON(c3ccccc3)CC=C2C)cc1 (stereo not drawn) | > 35.5 µM | > 35.5 µM |  |
| CN(C)c1ccc2c(c1)-c1cc(N(C)C)ccc1C2=CC=C1C(=O)c2ccccc2C1=O | > 17 µM | > 17 µM |  |
| O=S(=O)(O)c1cc(O)c(N=NC2S(=O)(=O)OCCOS2(=O)=O)c2ccccc12 | > 200 µM | 77.6 µM |  |

| Structure (SMILES) | EC50 | IC50 | outcome |
| --- | --- | --- | --- |
| CC(=O)Oc1c2c(c(OC(C)=O)c3c1C(=O)c1ccccc1C3=O)CCC([C@H](C)O)=C2 |  |  | inactive |
| Cc1ncc([N+](=O)[O-])n1CCN(C)CCCCn1ccnc1[N+](=O)[O-] | > 200 µM | > 200 µM |  |
| C#CC(OC(=O)NC1CCCCC1)(c1ccccc1)c1ccccc1 | > 200 µM | 20.4 µM |  |
| Cc1cc(NS(=O)(=O)c2ccc(NC(NC(=O)C(C(F)(F)F)C(F)(F)F)(C(F)(F)F)C(F)(F)F)cc2)no1 | > 200 µM | > 200 µM |  |
| Cc1cc(=O)[nH]c2c3c(ccc12)OC(C)(C)C=C3 | > 200 µM | 3.72 µM |  |
| COc1cccc(NC(=O)/C(Cc2nc3ccccc3nc2C)=N/NC(=O)C[n+]2ccccc2)c1 | > 95.5 µM | > 95.5 µM |  |
| COc1ccc(-c2oc3cc(OC)ccc3c(=O)c2O)cc1 | > 200 µM | > 200 µM |  |
| CCC(C)C(NC(=O)C(CCCN=C(N)N)NC(=O)C(CC(=O)O)NC(=O)C(Cc1cnc[nH]1)NC(=O)C(N)CC(C)C)C(=O)NC(C(=O)NC(CC(C)C)C(=O)NC(C(=O)NC(Cc1cnc[nH]1)C(=O)O)C(C)O)C(C)CC (stereo not drawn) (H-LHDRIILTH-OH; configuration not given here) | > 44.7 µM | > 44.7 µM |  |
| CC(=O)Nc1sccc1S(=O)(=O)c1ccc(Cl)cc1 | > 200 µM | > 200 µM |  |
| O=C(c1ccc([N+](=O)[O-])cc1)c1no[n+]([O-])c1C(=O)c1ccc([N+](=O)[O-])cc1 |  |  | inactive |
| O=C1NC2Cc3ccccc3C(C2)O1 (stereo not drawn) | > 200 µM | > 200 µM |  |
| O=c1c2ccccc2sc2cccc(NCCCN3CCN(CCCNc4cccc5sc6ccccc6c(=O)c45)CC3)c12 | > 100 µM | > 100 µM |  |
| CN(C)Cc1cc(O)c(CN(C)C)cc1O | > 200 µM | 9.33 µM |  |
| CCOC(=O)CCc1cn2cc(Br)nc(OC)c2n1 | > 200 µM | 25.1 µM |  |
| Cc1c(S(=O)(=O)c2ccccc2)c(N)n(CCN(C)C)c1C | > 200 µM | 44.7 µM |  |
| O=C(c1ccccc1)N1N=C(C(F)(F)F)CC1(O)C(F)(F)F (stereo not drawn) | > 200 µM | > 200 µM |  |
| C[C@]12CCC(=O)C=C1CC[C@@H]1C2CC[C@]2(C)Nc3[nH]ncc3CC12 (stereo partly drawn) |  |  | inactive |
| O=C(c1cccc(C(=O)c2ccc3c4c(cccc24)C(=O)N(c2ccccc2)C3=O)c1)c1ccc2c3c(cccc13)C(=O)N(c1ccccc1)C2=O | > 200 µM | > 200 µM |  |
| O=C(Nc1ccc(Cl)cc1C(=O)O)c1ccc([N+](=O)[O-])cc1 |  |  | inactive |
